± gives the standard deviation.
Key:
[1] = test system: Plasmodium falciparum 3D7; test: R50 (50% reduction of ring formation, egress/invasion); higher = less potent
Procedure: (§1)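 P. falciparum asexual blood stages. EC50: sorbitol-synchronized 3D7 rings were treated with 2-fold dilutions from 10 µM for 60 h, with parasitemia read by SYBR Green I fluorescence; EC50 listed as 10 means not determined and is left out. Stage transition screen: ~40-42 hpi schizonts were treated at 1, 3 and 10 µM; new rings were counted by Hoechst flow cytometry and % inhibition is relative to DMSO controls (mean of 3 experiments). R50: concentration giving 50% reduction of new ring formation versus DMSO in 3D7, K1 and KH004-003, from flow cytometry after 12-20 h treatment of schizonts.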

[2] = test system: Plasmodium falciparum KH004-003 (artemisinin resistant); test: as above
Procedure: as §1

[3] = test system: Plasmodium falciparum K1 (chloroquine resistant); test: as above
Procedure: as §1

[4] = test system: Toxoplasma gondii RH tachyzoites; test: median egress time after A23187 ionophore; higher = stronger egress inhibition; details: 10 µM; pretreatment time: 24 h
Procedure: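 T. gondii RH tachyzoites expressing firefly luciferase were grown in HFF monolayers for 48 h with compound. % growth inhibition at 10 µM and EC50 (2-fold dilutions from 10 µM) were read by luminescence relative to 1% DMSO; EC50 listed as 10 (not determined, <80% inhibition) is left out. Plaque assays: 50 tachyzoites per well with 10 µM compound for 8-10 days, giving plaque count and area by crystal violet/ImageJ. Egress: median time to egress after 1 µM A23187 ionophore following 24 h of 10 µM compound (DMSO ~1.8 min; >10 = no egress within 10 min).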

[5] = test system: Toxoplasma gondii RH tachyzoites; test: % growth inhibition vs DMSO (48 h luciferase); higher = more inhibition; details: 10 µM
[6] = test system: Plasmodium falciparum 3D7; test: % inhibition of schizont-to-ring transition vs DMSO; higher = more inhibition
Outline: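 Tightly synchronised P. falciparum schizonts (about 40–42 hours post-invasion, 1% parasitemia, 2.5% hematocrit, AlbuMAX-supplemented RPMI) were exposed to compound at 1, 3 or 10 µM, with vehicle and positive controls. Cells were glutaraldehyde-fixed, Triton-permeabilised, stained with Hoechst 33342 and counted by flow cytometry (at least 100,000 events). Schizont-to-ring transition inhibition is new ring formation relative to vehicle controls, averaged over three experiments.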

[7] = test system: Plasmodium falciparum 3D7; test: EC50 growth inhibition (60 h, SYBR Green); details: stage: ring-stage start
[8] = molecular target: Toxoplasma gondii RH tachyzoites; test: EC50 growth inhibition (48 h luciferase)
[9] = test system: Toxoplasma gondii RH tachyzoites; test: plaque count per well; higher = less inhibition; extreme values may be limits of the assay; details: 10 µM; 8-10 days
Outline: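 Confluent HFF monolayers in six-well plates were preseeded with compound at 10 µM, and fifty T. gondii RH tachyzoites were added to each well. After 8 to 10 days without disturbance, the plates were methanol-fixed, stained with crystal violet, imaged, and plaques per well were counted in ImageJ. The plaque count per well is taken as a measure of delayed-death inhibition of parasite growth.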
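Throughout, for % growth inhibition vs DMSO (48 h luciferase): tested in triplicate wells of 96-well plates on confluent HFF monolayers, with 1% DMSO wells as negative control in four replicates.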

How did the R50 [1] turn out when `COc1cccc(NC(=O)[C@H](C(C)C)n2c(=O)[nH]c3ccccc3c2=O)c1` was run?
Its R50 is 0.28 µM.

And the R50 [2]?
The R50 was 0.183 µM.

What about the R50 [3] of the same molecule?
The R50 was 0.212 µM.

And the median egress time [4]?
Its median egress time is 2.67 min.

And the “% growth inhibition” value [5]?
The value was 76.9 ± 9.3%.

What about the “% inhibition of schizont-to-ring transition” value (from here on “% inhibition”) ([6]; 1 µM) of the same molecule?
The value was 79.8%.

And the “% inhibition” value ([6]; 3 µM)?
Its value is 80.5%.

What about the “% inhibition” value ([6]; 10 µM) of the same molecule?
Its value is 79.4%.

And the EC50 growth inhibition [7]?
The EC50 growth inhibition was 51.4 nM.

What does the source list for `COc1ccc(CCn2c(=N)c(C(=O)NCc3cccnc3)cc3c(=O)n4cccc(C)c4nc32)cc1`?
R50 [1]: 2.26 µM; R50 [2]: 0.771 µM; R50 [3]: 2.1 µM; median egress time [4]: 2.13 min; % growth inhibition [5]: 75.9 ± 1.6%; % inhibition of schizont-to-ring transition ([6]; 1 µM): 40.3%; % inhibition of schizont-to-ring transition ([6]; 3 µM): 65.1%; % inhibition of schizont-to-ring transition ([6]; 10 µM): 66.9%; EC50 growth inhibition [7]: 353 nM

With `Cc1cc(Nc2ccc(OCc3ccccc3)cc2)nc2cc(O)ccc12` as the molecule, how does the EC50 growth inhibition [8] read?
Its EC50 growth inhibition is 2850 nM.

And the R50 [1]?
The R50 was 0.97 µM.

And the R50 [2]?
Its R50 is 0.702 µM.

What about the R50 [3] of the same molecule?
The R50 was 0.291 µM.

What about the “% growth inhibition” value [5] of the same molecule?
Its value is 100.3 ± 0.21%.

What about the “% inhibition” value ([6]; 1 µM) of the same molecule?
The value was 64.2%.

What about the “% inhibition” value ([6]; 3 µM) of the same molecule?
Its value is 71.9%.

And the “% inhibition” value ([6]; 10 µM)?
The value was 69.8%.

What about the EC50 growth inhibition [7] of the same molecule?
Its EC50 growth inhibition is 195 nM.

For `COc1cc(OC)c(N(C)C(=O)c2cc3c(s2)-c2ccccc2S(=O)(=O)C3)cc1Cl`, which R50 [1] is on record?
The R50 was 0.868 µM.

And the R50 [2]?
The R50 was 0.352 µM.

What about the R50 [3] of the same molecule?
The R50 was 0.933 µM.

And the median egress time [4]?
The median egress time was 8.4 min.

And the “% growth inhibition” value [5]?
Its value is under 0%.

And the “plaque count per well” value [9]?
The value was 33.

And the “% inhibition” value ([6]; 1 µM)?
The value was 55.9%.

What about the “% inhibition” value ([6]; 3 µM) of the same molecule?
The value was 60%.

And the “% inhibition” value ([6]; 10 µM)?
The value was 66.3%.

And the EC50 growth inhibition [7]?
Its EC50 growth inhibition is 1190 nM.

For `Cc1cc(NC(=O)C2c3ccccc3C(=O)N(CC(C)C)C2c2cccs2)no1` (centres undefined), which R50 [1] is on record?
The R50 was 0.363 µM.

And the R50 [2]?
The R50 was 0.43 µM.

And the R50 [3]?
Its R50 is 0.307 µM.

What about the median egress time [4] of the same molecule?
Its median egress time is 5.73 min.

What about the “% growth inhibition” value [5] of the same molecule?
Its value is under 0%.

And the “plaque count per well” value [9]?
The value was 29.

And the “% inhibition” value ([6]; 1 µM)?
Its value is 76.6%.

What about the “% inhibition” value ([6]; 3 µM) of the same molecule?
The value was 76.8%.

And the “% inhibition” value ([6]; 10 µM)?
Its value is 78.6%.

And the EC50 growth inhibition [7]?
Its EC50 growth inhibition is 64 nM.

`COc1cccc(C2(C)Nc3ccccc3-c3nc4ccccc4n32)c1` (centres undefined) was tested. Which R50 [1] did it give?
Its R50 is 1.13 µM.

What about the R50 [2] of the same molecule?
Its R50 is 0.715 µM.

And the R50 [3]?
The R50 was 1.17 µM.

What about the median egress time [4] of the same molecule?
The median egress time was over 10 min.

And the “% growth inhibition” value [5]?
The value was 12.6 ± 12%.

What about the “plaque count per well” value [9] of the same molecule?
The value was 21.

What about the “% inhibition” value ([6]; 1 µM) of the same molecule?
Its value is 66%.

What about the “% inhibition” value ([6]; 3 µM) of the same molecule?
The value was 81.1%.

And the “% inhibition” value ([6]; 10 µM)?
Its value is 81.2%.

What about the EC50 growth inhibition [7] of the same molecule?
Its EC50 growth inhibition is 217 nM.

Which results are given for `COc1ccc(C2c3ccc4ccccc4c3Oc3ncn(CCCn4ccnc4)c(=N)c32)cc1OC` (centres undefined)?
R50 [1]: 2.5 µM; R50 [2]: 2.4 µM; R50 [3]: 2.92 µM; median egress time [4]: 2.27 min; % growth inhibition [5]: 65.4 ± 9%; % inhibition of schizont-to-ring transition ([6]; 1 µM): 40%; % inhibition of schizont-to-ring transition ([6]; 3 µM): 73.6%; % inhibition of schizont-to-ring transition ([6]; 10 µM): 75.6%; EC50 growth inhibition [7]: 383 nM

For `COc1ccc2c(c1)C1(Nc3ccccc3-c3nc4ccccc4n31)C(=O)N2` (centres undefined), which R50 [1] is on record?
Its R50 is 0.892 µM.

What about the R50 [2] of the same molecule?
Its R50 is 0.922 µM.

And the R50 [3]?
Its R50 is 0.768 µM.

And the median egress time [4]?
Its median egress time is 2.33 min.

What about the “% growth inhibition” value [5] of the same molecule?
The value was 47.3 ± 3.5%.

What about the “% inhibition” value ([6]; 1 µM) of the same molecule?
Its value is 62%.

What about the “% inhibition” value ([6]; 3 µM) of the same molecule?
Its value is 64.1%.

What about the “% inhibition” value ([6]; 10 µM) of the same molecule?
Its value is 68.6%.

What about the EC50 growth inhibition [7] of the same molecule?
Its EC50 growth inhibition is 138 nM.

What does the source list for `CC1(c2ccccc2)Nc2ccccc2-c2nc3ccccc3n21` (centres undefined)?
R50 [1]: 0.768 µM; R50 [2]: 0.275 µM; R50 [3]: 0.955 µM; median egress time [4]: 4.13 min; % growth inhibition [5]: 24.3 ± 8%; % inhibition of schizont-to-ring transition ([6]; 1 µM): 56.1%; % inhibition of schizont-to-ring transition ([6]; 3 µM): 77.5%; % inhibition of schizont-to-ring transition ([6]; 10 µM): 79%; EC50 growth inhibition [7]: 194 nM

`CC(=O)NCCc1nc2ccccc2n1Cc1ccc(C(C)C)cc1` was tested. Which R50 [1] did it give?
The R50 was 3.03 µM.

What about the R50 [2] of the same molecule?
Its R50 is 3.03 µM.

What about the R50 [3] of the same molecule?
Its R50 is 3.69 µM.

And the median egress time [4]?
Its median egress time is 5.47 min.

What about the “% growth inhibition” value [5] of the same molecule?
Its value is under 0%.

What about the “plaque count per well” value [9] of the same molecule?
Its value is 33.

What about the “% inhibition” value ([6]; 1 µM) of the same molecule?
Its value is 37.3%.

And the “% inhibition” value ([6]; 3 µM)?
The value was 61%.

And the “% inhibition” value ([6]; 10 µM)?
Its value is 78.1%.

What about the EC50 growth inhibition [7] of the same molecule?
Its EC50 growth inhibition is 900 nM.

Reference: the supplement of paper PMC5770543
